Where a name gives a salt, the structure may show the parent alone. Read-outs that look alike come from different tables or passages of the source.
Key:
Test in all cases: biochemical
recombinant human MMP-13 = recombinant human MMP-13 (Homo sapiens, UniProt P45452)
recombinant human MMP-1 = target: T1, recombinant human MMP-1 (Homo sapiens, UniProt P03956)
T1 construct: made in house; host or cells: transfected HT-1080 cells
T1 sequence (P03956 100-469): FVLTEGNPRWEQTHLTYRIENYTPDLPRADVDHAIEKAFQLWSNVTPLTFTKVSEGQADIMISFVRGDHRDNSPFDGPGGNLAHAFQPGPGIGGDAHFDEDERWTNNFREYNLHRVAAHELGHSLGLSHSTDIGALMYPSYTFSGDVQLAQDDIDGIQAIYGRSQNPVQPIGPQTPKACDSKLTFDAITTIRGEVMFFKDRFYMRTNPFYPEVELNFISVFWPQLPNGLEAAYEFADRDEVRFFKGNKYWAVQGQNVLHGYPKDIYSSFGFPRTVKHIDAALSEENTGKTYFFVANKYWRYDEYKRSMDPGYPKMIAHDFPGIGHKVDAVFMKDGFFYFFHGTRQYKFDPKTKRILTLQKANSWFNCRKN

recombinant human MMP-2 = target: T2, recombinant human MMP-2 (Homo sapiens, UniProt P08253)
T2 sequence (P08253 110-660): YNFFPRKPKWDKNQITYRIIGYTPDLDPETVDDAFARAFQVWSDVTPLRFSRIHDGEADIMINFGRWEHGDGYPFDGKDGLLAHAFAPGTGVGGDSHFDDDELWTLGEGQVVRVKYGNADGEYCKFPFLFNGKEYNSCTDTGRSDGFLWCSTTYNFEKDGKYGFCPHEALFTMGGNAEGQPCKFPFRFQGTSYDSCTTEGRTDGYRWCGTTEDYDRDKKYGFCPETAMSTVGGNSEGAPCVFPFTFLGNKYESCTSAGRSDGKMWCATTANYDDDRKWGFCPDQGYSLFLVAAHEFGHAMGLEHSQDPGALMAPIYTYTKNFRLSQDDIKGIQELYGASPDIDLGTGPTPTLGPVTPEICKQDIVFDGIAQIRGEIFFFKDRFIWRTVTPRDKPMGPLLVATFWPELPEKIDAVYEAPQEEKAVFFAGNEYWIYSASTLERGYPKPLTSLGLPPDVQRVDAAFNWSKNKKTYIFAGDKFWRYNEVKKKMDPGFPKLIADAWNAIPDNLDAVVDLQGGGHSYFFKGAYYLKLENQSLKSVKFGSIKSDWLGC

SMILES | IC50 (recombinant human MMP-13; room temperature, pH 7.5, 1 percent DMSO, 4 μM MCA peptide substrate) [nM] | IC50 (recombinant human MMP-1) [nM] | IC50 (recombinant human MMP-2; room temperature, pH 7.5, 1 percent DMSO, 4 μM MCA peptide substrate, no asterisk) [nM] | IC50 (recombinant human MMP-13; Inhibition Table B) [nM] | IC50 (recombinant human MMP-1; Inhibition Table B) [nM] | IC50 (recombinant human MMP-2; Inhibition Table B) [nM]
O=C(NO)C1(S(=O)(=O)c2ccc(SC3CCCCC3)cc2)CCN(C2CC2)CC1 [Example 21] | 0.6 | > 10000 | 1.3 |  |  | 
C#CCN1CCC(C(=O)O)(S(=O)(=O)c2ccc(Sc3ccc(Cl)cc3)cc2)CC1 [Example 44a, 4-[[4-(4-chlorophenyl)thio]phenyl)sulfonyl]-1-(propynyl)-4-piperidinecarboxylic acid, monohydrochloride] |  |  |  | 0.2 | > 10000 | < 0.1
C#CCN1CCC(C(=O)NO)(S(=O)(=O)c2ccc(Sc3ccc(Cl)cc3)cc2)CC1 [Example 44b, 4-[[4-(4-chlorophenyl)thio]phenyl]sulfonyl]-N-hydroxy-1-(propynyl)-4-piperidinecarboxamide, monohydrochloride] |  |  |  | > 10000 | > 10000 | 8000
C#CCN1CCC(C(=O)NO)(S(=O)(=O)c2ccc([S+]([O-])c3ccccc3)cc2)CC1 (stereo not drawn) [Example 47b] |  |  |  | 3100 | > 10000 | 3000
O=C(O)C1CCN(c2ccc(S(=O)(=O)C3(C(=O)NO)CCOCC3)cc2)CC1 [Example 129] |  |  |  | 1000 | > 10000 | > 100
CNC(=O)C1CCN(c2ccc(S(=O)(=O)C3(C(=O)NO)CCOCC3)cc2)CC1 [Example 130] |  |  |  | 45.9 | > 10000 | 57.7
O=C(C1CCN(c2ccc(S(=O)(=O)C3(C(=O)NO)CCOCC3)cc2)CC1)N1CCOCC1 [Example 131] |  |  |  | 10 | > 10000 | 650
O=C(NCCO)C1CCN(c2ccc(S(=O)(=O)C3(C(=O)NO)CCOCC3)cc2)CC1 [Example 132] |  |  |  |  | > 10000 | 420
NCCCNC(=O)C1CCN(c2ccc(S(=O)(=O)C3(C(=O)NO)CCOCC3)cc2)CC1 [Example 133] |  |  |  | 27 | > 10000 | 90
CCNC(=O)C1CCN(c2ccc(S(=O)(=O)C3(C(=O)NO)CCOCC3)cc2)CC1 [Example 134] |  |  |  | 4 | 9000 | 29
O=C(O)CNC(=O)C1CCN(c2ccc(S(=O)(=O)C3(C(=O)NO)CCOCC3)cc2)CC1 [Example 135] |  |  |  | 65 | > 10000 | 500
O=C(NO)C1CCN(c2ccc(S(=O)(=O)C3(C(=O)NO)CCOCC3)cc2)CC1 [Example 137] |  |  |  | 34.7 | > 10000 | 300
O=C(O)C1CCCN(c2ccc(S(=O)(=O)C3(C(=O)NO)CCOCC3)cc2)C1 (stereo not drawn) [Example 138] |  |  |  | > 100 | > 10000 | > 100
CNC(=O)C1CCCN(c2ccc(S(=O)(=O)C3(C(=O)NO)CCOCC3)cc2)C1 (stereo not drawn) [Example 139] |  |  |  | 25.4 | > 10000 | 
O=C(C1CCCN(c2ccc(S(=O)(=O)C3(C(=O)NO)CCOCC3)cc2)C1)N1CCOCC1 (stereo not drawn) [Example 140] |  |  |  | 60 | > 10000 | 
O=C(NCCO)C1CCCN(c2ccc(S(=O)(=O)C3(C(=O)NO)CCOCC3)cc2)C1 (stereo not drawn) [Example 141] |  |  |  | > 100 | > 10000 | > 100
NCCCNC(=O)C1CCCN(c2ccc(S(=O)(=O)C3(C(=O)NO)CCOCC3)cc2)C1 (stereo not drawn) [Example 142] |  |  |  | 70 | > 10000 | 600
CCNC(=O)C1CCCN(c2ccc(S(=O)(=O)C3(C(=O)NO)CCOCC3)cc2)C1 (stereo not drawn) [Example 143] |  |  |  | 23.9 | > 10000 | 900
O=C(O)CNC(=O)C1CCCN(c2ccc(S(=O)(=O)C3(C(=O)NO)CCOCC3)cc2)C1 (stereo not drawn) [Example 144] |  |  |  | 30.7 | > 10000 | 800
O=C(NO)C1CCCN(c2ccc(S(=O)(=O)C3(C(=O)NO)CCOCC3)cc2)C1 (stereo not drawn) [Example 146] |  |  |  | 32.6 | > 10000 | 650
CN(C)C(=O)C1CCN(c2ccc(S(=O)(=O)C3(C(=O)NO)CCOCC3)cc2)CC1 [Example 147] |  |  |  | 31 | > 10000 | 2700
CCN(CC)C(=O)C1CCN(c2ccc(S(=O)(=O)C3(C(=O)NO)CCOCC3)cc2)CC1 [Example 148] |  |  |  | 31 | > 10000 | 2400
O=C(C1CCN(c2ccc(S(=O)(=O)C3(C(=O)NO)CCOCC3)cc2)CC1)N1CCCCC1 [Example 149] |  |  |  | 15.5 | > 10000 | 1600

SMILES | IC50 (recombinant human MMP-13; room temperature, pH 7.5, 1 percent DMSO, 4 μM MCA peptide substrate) [nM] | IC50 (recombinant human MMP-1) [nM] | IC50 (recombinant human MMP-2; room temperature, pH 7.5, 1 percent DMSO, 4 μM MCA peptide substrate, no asterisk) [nM] | IC50 (recombinant human MMP-13; Inhibition Table B) [nM] | IC50 (recombinant human MMP-1; Inhibition Table B) [nM] | IC50 (recombinant human MMP-2; Inhibition Table B) [nM]
CN1CCN(C(=O)C2CCN(c3ccc(S(=O)(=O)C4(C(=O)NO)CCOCC4)cc3)CC2)CC1 [Example 150] |  |  |  | 14.5 | > 10000 | 1300
O=C(C1CCN(c2ccc(S(=O)(=O)C3(C(=O)NO)CCOCC3)cc2)CC1)N1CCNCC1 [Example 151] |  |  |  | 35 | > 10000 | 1500
CCOC(=O)C1CCN(C(=O)C2CCN(c3ccc(S(=O)(=O)C4(C(=O)NO)CCOCC4)cc3)CC2)CC1 [Example 152] |  |  |  | 16.5 | > 10000 | 2400
CCOC(=O)C1CCCN(C(=O)C2CCN(c3ccc(S(=O)(=O)C4(C(=O)NO)CCOCC4)cc3)CC2)C1 (stereo not drawn) [Example 153] |  |  |  | 13.5 | > 10000 | 2700
CCOC(=O)C1CCCCN1C(=O)C1CCN(c2ccc(S(=O)(=O)C3(C(=O)NO)CCOCC3)cc2)CC1 (stereo not drawn) [Example 154] |  |  |  | 27 | > 10000 | 1600
CN(C)C(=O)C1CCCN(c2ccc(S(=O)(=O)C3(C(=O)NO)CCOCC3)cc2)C1 (stereo not drawn) [Example 155] |  |  |  | > 100 | > 10000 | > 1000
O=C(C1CCCN(c2ccc(S(=O)(=O)C3(C(=O)NO)CCOCC3)cc2)C1)N1CCCCC1 (stereo not drawn) [Example 156] |  |  |  | 27.8 | > 10000 | 3300
CN1CCN(C(=O)C2CCCN(c3ccc(S(=O)(=O)C4(C(=O)NO)CCOCC4)cc3)C2)CC1 (stereo not drawn) [Example 157] |  |  |  | 90 | > 10000 | 6000
O=C(C1CCCN(c2ccc(S(=O)(=O)C3(C(=O)NO)CCOCC3)cc2)C1)N1CCNCC1 (stereo not drawn) [Example 158] |  |  |  | 80 | > 10000 | 5000
CCOC(=O)C1CCN(C(=O)C2CCCN(c3ccc(S(=O)(=O)C4(C(=O)NO)CCOCC4)cc3)C2)CC1 (stereo not drawn) [Example 159] |  |  |  | 15.6 | > 10000 | 2500
CCOC(=O)C1CCCN(C(=O)C2CCCN(c3ccc(S(=O)(=O)C4(C(=O)NO)CCOCC4)cc3)C2)C1 (stereo not drawn) [Example 160] |  |  |  | 33.7 | > 10000 | 4700
CCOC(=O)C1CCCCN1C(=O)C1CCCN(c2ccc(S(=O)(=O)C3(C(=O)NO)CCOCC3)cc2)C1 (stereo not drawn) [Example 161] |  |  |  | > 100 | > 10000 | > 1000
O=C(C1CCCN(c2ccc(S(=O)(=O)C3(C(=O)NO)CCOCC3)cc2)C1)N1CCCCCC1 (stereo not drawn) [Example 162] |  |  |  | > 100 | > 10000 | > 1000
CC1(C)C[C@@H]2C[C@@](C)(CN2C(=O)C2CCCN(c3ccc(S(=O)(=O)C4(C(=O)NO)CCOCC4)cc3)C2)C1 (stereo partly drawn) [Example 163] |  |  |  | 77.4 | > 10000 | 4000
C[C@@H]1CN(C(=O)C2CCCN(c3ccc(S(=O)(=O)C4(C(=O)NO)CCOCC4)cc3)C2)C[C@H](C)O1 (stereo partly drawn) [Example 169] |  |  |  | > 100 |  | > 1000
O=C(C1CCCN(c2ccc(S(=O)(=O)C3(C(=O)NO)CCOCC3)cc2)C1)N1CCCC2CCCCC21 (stereo not drawn) [Example 170] |  |  |  | > 100 |  | > 1000
N[C@H]1CCN(C(=O)C2CCN(c3ccc(S(=O)(=O)C4(C(=O)NO)CCOCC4)cc3)CC2)C1 [Example 175] |  |  |  | > 100 |  | > 1000
C[C@@H]1CN(C(=O)C2CCN(c3ccc(S(=O)(=O)C4(C(=O)NO)CCOCC4)cc3)CC2)C[C@H](C)O1 [Example 176] |  |  |  | 25 |  | 400
O=C(C1CCN(c2ccc(S(=O)(=O)C3(C(=O)NO)CCOCC3)cc2)CC1)N1CCCC1 [Example 179] |  |  |  |  | > 10000 | 440
CCCCNC(=O)C1CCN(c2ccc(S(=O)(=O)C3(C(=O)NO)CCOCC3)cc2)CC1 [Example 181] |  |  |  | 6.1 |  | 121
O=C(NC1CCCCCC1)C1CCN(c2ccc(S(=O)(=O)C3(C(=O)NO)CCOCC3)cc2)CC1 [Example 194] |  |  |  | 8 |  | 165
O=C(NCc1ccncc1)C1CCN(c2ccc(S(=O)(=O)C3(C(=O)NO)CCOCC3)cc2)CC1 [Example 195] |  |  |  | 14.5 |  | 
